Columns and labels:
HER2 kinase = target: T1, HER2 kinase (Homo sapiens, UniProt P04626); experiment: HER2 kinase assay (ULight/PT66 TR-FRET); assay type: biochemical
T1 construct: purchased Carna Biosciences 08-016
Procedure: (§1) Preparation of compound solution: The assay compound was dissolved in DMSO to form a 10 mM stock solution. Prior to use, the compound was diluted to 0.25 mM in DMSO (100 times the final concentration of the diluent) and then subjected to a 3-fold concentration gradient dilution to obtain a total of 11 concentrations. The solution was diluted with buffer to a diluent with 4× the final concentration when the compound was added.
(§2) HER2 kinase assay: buffer was prepared, and 40 nM 4×Her2 kinase solution, 40 μM 4×ATP solution, and 400 nM 4×ULight™-labeled Ploy GT Peptide substrate solution were prepared using the buffer. After the preparation was completed, the enzyme was mixed with different concentrations of compounds pre-prepared by dilution, and the mixture was left to stand at room temperature for 5 min. Each concentration was performed in duplicate. The corresponding substrate and ATP were added and the mixture was reacted at room temperature for 120 minutes (with negative and positive controls). After completion of the reaction, PT66 detection antibody was added. The mixture was incubated at room temperature for 60 minutes, and then detected by Envision.
(§3) Compound concentrations and corresponding inhibition rates were input into GraphPad Prism for processing to calculate IC50 values.

EGFR^WT kinase = EGFR^WT kinase (Homo sapiens, UniProt P00533); experiment: EGFR^WT kinase assay (ULight/PT66 TR-FRET); assay type: biochemical
Procedure: as §1
as §2, with “EGFR^WT kinase assay:” for “HER2 kinase assay:”, “prepared, and 3.48 nM 4×EGFR” for “prepared, and 40 nM 4×Her2”, “3.48 nM 4×EGFR kinase solution,” for “40 nM 4×Her2 kinase solution,”, “kinase solution, 600 μM 4×ATP” for “kinase solution, 40 μM 4×ATP”, “nM 4×ULight™-labeled JAK-1 (Try1023) Peptide substrate” for “nM 4×ULight™-labeled Ploy GT Peptide substrate”
as §3

[1] = target: Ba/F3 HER2 A775_G776insYVMA cells (Homo sapiens, UniProt P04626, DUP772-775, cells depend on it); experiment: Inhibition of cell proliferation, CTG method, Ba/F3 HER2 A775_G776insYVMA; assay type: cell-based; settings: 72 hours, read-out: Ba/F3 HER2 A775-G776insYVMA IC50
Description: The present application examined the in vitro anti-proliferative activity of the compounds of the present disclosure against in vitro cultured BT474, NCI-N87, Ba/F3-EGFR-VIII and Ba/F3 HER2 A775_G776insYVMA and Ba/F3 EGFR D770_N771insSVD cell lines by CTG method.
Cell lines: BT474 (from the cell bank of Chinese Academy of Sciences), NCI-N87 (from ATCC), Ba/F3-EGFR-VIII, Ba/F3 HER2 A775_G776insYVMA and Ba/F3 EGFR D770_N771insSVD (all from KYinno Biotechnology (Beijing) Co., Ltd.); all of the above cells were cultured with RPMI1640 medium containing 10% fetal bovine serum, 100 U/mL penicillin, and 100 μg/mL streptomycin in the culture process.
1. The assay compound was dissolved with DMSO to form a stock solution and a gradient dilution was performed, followed by dilution with the corresponding medium to obtain a solution with 5-fold working concentration.
2. Cells in logarithmic growth phase were adjusted to specific cell densities by dilution with culture medium, and 80 μL of cell suspension was added to a 96-well plate, such that plating densities of cells of BT474, NCI-N87, Ba/F3-EGFR-VIII, Ba/F3 HER2 A775_G776insYVMA and Ba/F3 EGFR D770_N771insSVD were all 3000 cells/well. The cells of Ba/F3-EGFR-VIII, Ba/F3 HER2 A775_G776insYVMA and Ba/F3 EGFR D770_N771insSVD were used directly in the next step (treatment with compound), whereas the BT474 and NCI-N87 needed to be cultured overnight in a 37° C., 5% carbon dioxide gas incubator to adhere to the wall, and then treated with compounds.
3. […] The highest concentration of the assayed compound was 10 μM, 4-fold serial dilution, a total of 9 concentrations, and duplicate wells. A control group without compound was also set up.
4. The cells were cultured for another 72 hours, and then cell viability was detected by CTG assay kit. Signal values were read with a multifunctional plate reader (Perkin Elmer). GraphPad Prism software was used to create a dose-response curve and IC50 was calculated.

T1 sequence (P04626 23-1255): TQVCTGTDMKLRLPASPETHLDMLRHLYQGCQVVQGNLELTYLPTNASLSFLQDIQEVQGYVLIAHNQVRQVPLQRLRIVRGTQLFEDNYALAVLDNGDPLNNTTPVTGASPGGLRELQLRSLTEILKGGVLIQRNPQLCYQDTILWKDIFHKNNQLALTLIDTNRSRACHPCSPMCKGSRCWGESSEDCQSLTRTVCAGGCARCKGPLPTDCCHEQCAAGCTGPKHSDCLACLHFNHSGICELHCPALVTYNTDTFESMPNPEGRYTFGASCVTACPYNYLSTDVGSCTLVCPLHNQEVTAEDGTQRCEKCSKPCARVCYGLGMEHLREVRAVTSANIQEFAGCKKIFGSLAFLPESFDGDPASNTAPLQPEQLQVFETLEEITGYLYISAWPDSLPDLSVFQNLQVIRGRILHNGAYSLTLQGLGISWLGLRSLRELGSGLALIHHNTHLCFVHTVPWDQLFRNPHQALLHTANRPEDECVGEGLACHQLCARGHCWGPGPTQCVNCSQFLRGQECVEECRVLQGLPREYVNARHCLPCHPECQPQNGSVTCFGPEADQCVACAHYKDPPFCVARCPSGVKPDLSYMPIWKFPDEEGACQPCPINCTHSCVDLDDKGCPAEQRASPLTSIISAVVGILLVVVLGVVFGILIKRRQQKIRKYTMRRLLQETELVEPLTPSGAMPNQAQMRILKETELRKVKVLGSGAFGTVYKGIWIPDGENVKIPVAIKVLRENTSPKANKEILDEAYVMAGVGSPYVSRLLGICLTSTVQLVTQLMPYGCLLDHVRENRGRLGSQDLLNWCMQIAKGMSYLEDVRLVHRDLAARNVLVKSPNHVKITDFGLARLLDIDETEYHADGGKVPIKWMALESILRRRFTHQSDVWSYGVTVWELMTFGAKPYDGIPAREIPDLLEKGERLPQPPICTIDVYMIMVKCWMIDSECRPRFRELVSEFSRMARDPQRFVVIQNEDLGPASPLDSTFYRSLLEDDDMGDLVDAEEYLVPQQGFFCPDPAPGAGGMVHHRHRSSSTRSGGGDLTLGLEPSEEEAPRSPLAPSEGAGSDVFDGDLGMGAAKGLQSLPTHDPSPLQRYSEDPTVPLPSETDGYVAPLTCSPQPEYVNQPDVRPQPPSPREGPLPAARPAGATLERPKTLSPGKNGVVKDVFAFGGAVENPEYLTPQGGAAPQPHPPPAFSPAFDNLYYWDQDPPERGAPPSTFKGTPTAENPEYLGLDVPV
Chain of Ba/F3 HER2 A775_G776insYVMA cells (P04626 with tags, fused parts or gaps DUP772-775): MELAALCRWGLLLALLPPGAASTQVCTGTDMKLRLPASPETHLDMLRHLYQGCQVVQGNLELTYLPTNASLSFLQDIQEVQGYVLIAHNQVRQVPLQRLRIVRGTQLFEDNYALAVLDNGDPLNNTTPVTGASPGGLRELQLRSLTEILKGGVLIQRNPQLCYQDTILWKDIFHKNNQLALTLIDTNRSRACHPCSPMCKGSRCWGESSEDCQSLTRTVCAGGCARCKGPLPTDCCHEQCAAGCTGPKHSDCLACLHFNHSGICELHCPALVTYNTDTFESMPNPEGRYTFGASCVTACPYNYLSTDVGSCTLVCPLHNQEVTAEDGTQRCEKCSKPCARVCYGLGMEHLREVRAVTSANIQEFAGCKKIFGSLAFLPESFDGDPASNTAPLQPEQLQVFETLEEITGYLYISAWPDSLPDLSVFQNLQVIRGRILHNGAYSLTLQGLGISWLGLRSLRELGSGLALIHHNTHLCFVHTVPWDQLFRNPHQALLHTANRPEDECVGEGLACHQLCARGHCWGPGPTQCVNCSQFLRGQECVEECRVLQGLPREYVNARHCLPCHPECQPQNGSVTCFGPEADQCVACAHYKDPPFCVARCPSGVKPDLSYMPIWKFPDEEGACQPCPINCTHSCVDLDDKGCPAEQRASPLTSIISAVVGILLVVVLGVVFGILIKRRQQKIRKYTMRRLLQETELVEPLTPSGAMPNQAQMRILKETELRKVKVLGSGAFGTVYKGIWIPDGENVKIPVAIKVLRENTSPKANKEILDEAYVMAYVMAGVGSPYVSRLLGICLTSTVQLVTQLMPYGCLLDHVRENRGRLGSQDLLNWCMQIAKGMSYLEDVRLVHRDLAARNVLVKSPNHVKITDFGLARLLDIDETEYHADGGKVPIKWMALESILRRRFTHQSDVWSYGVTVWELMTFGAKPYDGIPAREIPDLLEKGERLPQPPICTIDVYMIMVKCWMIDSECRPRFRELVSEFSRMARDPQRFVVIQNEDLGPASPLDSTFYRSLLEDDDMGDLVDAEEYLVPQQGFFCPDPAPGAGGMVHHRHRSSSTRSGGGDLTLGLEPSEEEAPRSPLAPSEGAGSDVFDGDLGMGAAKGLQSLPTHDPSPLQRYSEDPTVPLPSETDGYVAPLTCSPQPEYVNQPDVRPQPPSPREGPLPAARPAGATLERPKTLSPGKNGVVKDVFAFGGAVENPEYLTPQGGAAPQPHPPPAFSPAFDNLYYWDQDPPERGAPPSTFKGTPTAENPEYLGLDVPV
Chain of EGFR^WT kinase (P00533 25-1210): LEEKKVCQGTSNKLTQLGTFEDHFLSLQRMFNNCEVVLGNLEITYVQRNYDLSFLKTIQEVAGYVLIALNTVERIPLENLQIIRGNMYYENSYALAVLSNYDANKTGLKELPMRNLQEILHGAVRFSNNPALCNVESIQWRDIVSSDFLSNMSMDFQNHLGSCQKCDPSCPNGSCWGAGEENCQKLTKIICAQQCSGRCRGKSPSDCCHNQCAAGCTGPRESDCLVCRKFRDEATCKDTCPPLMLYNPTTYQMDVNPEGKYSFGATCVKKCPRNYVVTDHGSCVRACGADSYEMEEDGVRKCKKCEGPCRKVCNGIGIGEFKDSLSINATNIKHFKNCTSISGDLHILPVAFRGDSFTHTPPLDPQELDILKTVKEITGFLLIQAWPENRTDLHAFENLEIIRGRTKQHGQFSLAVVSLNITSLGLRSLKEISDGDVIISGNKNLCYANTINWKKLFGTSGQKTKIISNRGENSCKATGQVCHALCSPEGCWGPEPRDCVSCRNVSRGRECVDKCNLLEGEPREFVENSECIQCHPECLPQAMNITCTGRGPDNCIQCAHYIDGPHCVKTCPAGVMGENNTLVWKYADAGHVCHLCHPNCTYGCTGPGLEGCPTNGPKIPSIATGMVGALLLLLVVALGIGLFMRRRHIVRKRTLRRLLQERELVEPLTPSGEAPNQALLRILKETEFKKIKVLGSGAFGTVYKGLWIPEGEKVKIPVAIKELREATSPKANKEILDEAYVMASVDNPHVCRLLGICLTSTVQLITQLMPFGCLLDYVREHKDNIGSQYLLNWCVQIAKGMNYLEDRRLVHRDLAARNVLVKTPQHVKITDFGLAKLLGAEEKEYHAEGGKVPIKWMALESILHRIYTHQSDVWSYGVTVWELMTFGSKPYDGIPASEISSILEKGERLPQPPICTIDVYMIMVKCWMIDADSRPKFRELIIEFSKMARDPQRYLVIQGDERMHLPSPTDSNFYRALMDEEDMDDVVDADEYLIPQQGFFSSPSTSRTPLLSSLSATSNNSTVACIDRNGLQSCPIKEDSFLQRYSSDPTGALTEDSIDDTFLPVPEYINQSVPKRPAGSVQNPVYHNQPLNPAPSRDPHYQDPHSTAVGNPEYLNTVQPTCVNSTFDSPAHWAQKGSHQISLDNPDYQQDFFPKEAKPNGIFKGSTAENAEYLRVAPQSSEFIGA

IC50 (HER2 kinase) | IC50 (EGFR^WT kinase) | GI50 [1] | Structure (SMILES)
< 10 nM | 10 to 100 nM | 1 to 5 nM | CN1CCC[C@@H]1/C=C/C(=O)Nc1ccc2ncnc(Nc3ccc(OCc4ccccn4)c(Cl)c3)c2c1OC1CC1 [Example 37, (R,E)-N-(4-((3-chloro-4-(pyridin-2-ylmethoxy)phenyl)amino)-5-cyclopropoxyquinazolin-6-yl)-3-(1-methylpyrrolidin-2-yl)acrylamide]
< 10 nM | < 10 nM | 1 to 5 nM | [2H]C([2H])([2H])Oc1c(NC(=O)/C=C/CN(C)C)ccc2ncnc(Nc3ccc(OCc4ccccn4)c(Cl)c3)c12 [Example 36, (E)-N-(4-((3-chloro-4-(pyridin-2-ylmethoxy)phenyl)amino)-5-(methoxy-d3)quinazolin-6-yl)-4-(dimethylamino)but-2-enamide]
< 10 nM | < 10 nM | 1 to 5 nM | CN1CCC[C@@H]1/C=C/C(=O)Nc1ccc2ncnc(Nc3ccc(OCc4ccccn4)c(Cl)c3)c2c1OCCC(F)(F)F [Example 12, (R,E)-N-(4-((3-chloro-4-(pyridin-2-ylmethoxy)phenyl)amino)-5-(3,3,3-trifluoropropoxy)quinazolin-6-yl)-3-(1-methylpyrrolidin-2-yl)acrylamide]
< 10 nM | < 10 nM | 1 to 5 nM | CCOc1c(NC(=O)/C=C/[C@H]2CCCN2C)ccc2ncnc(Nc3ccc(OCc4ccccn4)c(F)c3)c12 [Example 21, (R,E)-N-(5-ethoxy-4-((3-fluoro-4-(pyridin-2-ylmethoxy)phenyl)amino)quinazolin-6-yl)-3-(1-methylpyrrolidine-2-yl)acrylamide]
< 10 nM | 100 to 1000 nM | 1 to 5 nM | COCCCNc1c(NC(=O)/C=C/[C@H]2CCCN2C)ccc2ncnc(Nc3ccc(OCc4ccccn4)c(Cl)c3)c12 [Example 32, (R,E)-N-(4-((3-chloro-4-(pyridin-2-ylmethoxy)phenyl)amino)-5-((3-methoxypropyl)amino)quinazolin-6-yl)-3-(1-methylpyrrolidin-2-yl)acrylamide]
< 10 nM | < 10 nM | 1 to 5 nM | CN1CCC[C@@H]1/C=C/C(=O)Nc1ccc2ncnc(Nc3ccc(Oc4ccccc4)cc3)c2c1OCCO [Example 31, (R,E)-N-(5-(2-hydroxyethoxy)-4-((4-phenyloxyphenyl)amino)quinazolin-6-yl)-3-(1-methylpyrrolidin-2-yl)acrylamide]
< 10 nM | < 10 nM | 1 to 5 nM | COc1c(NC(=O)/C=C/[C@H]2CCCN2C(C)C)ccc2ncnc(Nc3ccc(OCc4cccc(F)c4)c(Cl)c3)c12 [Example 18, (R,E)-N-(4-((3-chloro-4-(3-fluorobenzyloxy)phenyl)amino)-5-methoxyquinazolin-6-yl)-3-(1-isopropylpyrrolidine-2-yl)acrylamide]
< 10 nM | < 10 nM | 1 to 5 nM | COc1c(NC(=O)/C=C/CN(C)C2CCC2)ccc2ncnc(Nc3ccc(OCc4ccccn4)c(Cl)c3)c12 [Example 3, (E)-N-(4-((3-chloro-4-(pyridin-2-ylmethoxy)phenyl)amino)-5-methoxyquinazolin-6-yl)-4-(cyclobutyl(methyl)amino)but-2-enamide]
< 10 nM | 100 to 1000 nM | 1 to 5 nM | COCCN1CCC[C@@H]1/C=C/C(=O)Nc1ccc2ncnc(Nc3ccc(OCc4ccccn4)c(Cl)c3)c2c1OC [Example 25, (R,E)-N-(4-((3-chloro-4-(pyridin-2-ylmethoxy)phenyl)amino)-5-methoxyquinazolin-6-yl)-3-(1-(2-methoxyethyl)pyrrolidin-2-yl)acrylamide]

Structure (SMILES) | IC50 (HER2 kinase) | IC50 (EGFR^WT kinase) | GI50 [1]
CC(C)COc1c(NC(=O)/C=C/[C@H]2CCCN2C)ccc2ncnc(Nc3ccc(OCc4ccccn4)c(Cl)c3)c12 [Example 14, (R,E)-N-(4-((3-chloro-4-(pyridin-2-ylmethoxy)phenyl)amino)-5-isobutoxyquinazolin-6-yl)-3-(1-methylpyrrolidin-2-yl)acrylamide] | < 10 nM | < 10 nM | 1 to 5 nM
COCCCCOc1c(NC(=O)/C=C/[C@H]2CCCN2C)ccc2ncnc(Nc3ccc(OCc4ccccn4)c(Cl)c3)c12 [Example 23, (R,E)-N-(4-((3-chloro-4-(pyridin-2-ylmethoxy)phenyl)amino)-5-(4-methoxybutoxy)quinazolin-6-yl)-3-(1-methylpyrrolidin-2-yl)acrylamide] | < 10 nM | 100 to 1000 nM | 1 to 5 nM
CN1CCC[C@@H]1/C=C/C(=O)Nc1ccc2ncnc(Nc3ccc(OCc4ccccn4)c(Cl)c3)c2c1OCCC(C)(C)O [Example 16, (R,E)-N-(4-((3-chloro-4-(pyridin-2-ylmethoxy)phenyl)amino)-5-(3-hydroxy-3-methylbutoxy)quinazolin-6-yl)-3-(1-methylpyrrolidin-2-yl)acrylamide] | < 10 nM | < 10 nM | 1 to 5 nM
